Data from US20240350536A1, “Application of Bi-Phenols in Anti-ototoxicity and Hearing Protection” (Northwestern University, priority 2017, published 2024).
“Also recorded” adds a separate entry of the source. Read-outs that look alike come from different tables or passages of the source.

What was measured:
outer hair cells (OHC) = assay: Immunofluorescent histochemistry and confocal imaging of cochlear whole mount; format: in vivo, mice
Description: FIG. 13. Confocal images of the immunostaining (merged) of cochleae treated with Cis 15 (A) and Cis 15+HNK 20 (B) mg/kg, under 20× objectives.
FIG. 14. High-resolution confocal images (60× […]) of cochleae treated with Cis 15 (Left) and Cis 15+HNK 20 (Right), taken at the locations marked by white squares in FIGS. 13A and B, respectively. The white arrows indicate the nuclei of the remaining OHCs and the hollow arrows indicate missing OHCs. Note the panels for hair bundles (phalloidin staining) might be off focus and are only for indicating the correct position of the bodies and nuclei of the OHCs.
Immunofluorescent histochemistry (IFHC) of a cochlear whole mount was performed after the physiological studies described above using prestin antibody (for outer hair cells (OHC)), phalloidin (for hair bundle) and 4′,6-diamidino-2-phenylindole (DAPI) (for nuclei). […] (See FIG. 14A). HC loss can be indicated by the scarcity of remaining nuclei (white arrows).

colon cancer cells = assay: Survival of colon cancer cells with cisplatin and honokiol; format: cell-based
Protocol: (§1) FIG. 10. […] C: cisplatin; H: honokiol. […] Each treatment was repeated in triplets. The data were normalized by the number of untreated control (C0H0).
(§2) Because the role of SIRT3 may be different in different cancers, we selected three (3) different cancer cells for testing: prostate cancer cells, cervical cancer cells, and colon cancer cells. (See FIG. 10). Cisplatin was administered to the cancer cell lines with honokiol.

cervical cancer cells = assay: Survival of cervical cancer cells with cisplatin and honokiol; format: cell-based
Protocol: as §1, §2

[1] = system: outer hair cell (OHC) function; format: in vivo, mice
Protocol: FIG. 12A-12E. HNK protection against cisplatin-induced changes of DPOAE amplitude. […] The DPOAE shift, normalized to Day 0, of all the groups are plotted in (FIG. 12B to FIG. 12E). […] The results of the 2 animals in Cis 15 mg/kg group on Day 14 were both plotted in (FIG. 12B) as the dashed lines and open circles. […].
Distortion product oto-acoustic emissions (DPOAEs), which are an indication of outer hair cell (OHC) function, were measured in a separate series of experiments to estimate OHC protection by honokiol (HNK). (See FIG. 12A-12E). […] (See FIGS. 12D and 12E). After pre-treatment with HNK at a dosage of 10 mg/kg, the DPOAE shift was observed only at frequencies of 27 kHz and higher with a much smaller amplitude. (See FIG. 12D).

[2] = system: prostate cancer cells (C4-2B); assay: Survival of prostate cancer cells with cisplatin and honokiol; format: cell-based
Protocol: as §1, §2

[3] = Weight loss and animal survival in cisplatin-treated mice; format: in vivo
Description: (See FIG. 15). […] (See FIG. 15). […] (See FIG. 15A). […] (See FIG. 15B).

mice = assay: Auditory Brainstem Response (ABR) threshold shift in cisplatin-treated mice; format: in vivo
Description: Average=256. The error bars of all data points are standard deviations.

[4] = system: SIRT3, Caspase 3, PARP in HEI-OC1 cells; assay: Western blot of SIRT3 and apoptosis-related proteins in HEI-OC1 cells; format: cell-based, mouse
Protocol: FIG. 9. […] (A) C: cisplatin; H: HNK. […] Cisplatin and honokiol were added simultaneously.
(§3) (See FIG. 9). […] (See FIG. 9). […] (See FIG. 9).

[5] = literature statement, cited from earlier work
HEI-OC1 cells = system: HEI-OC1 cells
Description: FIG. 9. […] The data were normalized to the number of cells in the negative control (C0H0).
as §3

[6] = honokiol co-administered with cisplatin
[7] = cisplatin with honokiol pre-treatment

## N.N.[Cl][Pt][Cl] [cisplatin, reference compound]
Outer hair cells (OHC); Cis 15 mg/kg, basal 1/3 of the cochlea (estimated over 22 kHz)
  OHC organization and HC loss: Significant disruption of OHC organization and HC loss
Colon cancer cells; cisplatin 100 μM
  loss of colon cancer cells: massive loss
Cervical cancer cells; cisplatin 50 μM or 100 μM
  reduction in cervical cancer cells: mild reduction
[1]; mouse, in vivo
  DPOAE amplitude at high frequencies: reduced
  frequencies of apparent DPOAE amplitude drop: over 16 kHz
[2]; cisplatin 50 μM or 100 μM
  loss of prostate cancer cells: massive loss
[3]; cisplatin 20 mg/kg, day 8
  survival rate: zero

## C=CCc1ccc(O)c(-c2ccc(O)c(CC=C)c2)c1 [honokiol, 2-(4-hydroxy-3-prop-2-enyl-phenyl)-4-prop-2-enyl-phenol]
mice; HNK 10 mg/kg and cisplatin 15 mg/kg
  TS in tonal ABR at the highest frequency (32 kHz): significant TS
mice; HNK 10-20 mg/kg, cisplatin 15-20 mg/kg
  TS at other frequencies and dose combinations: No further significant TS
mice; mice pre-treated with HNK
  ABR TS induced by cisplatin: decreased significantly
[4]; HEI-OC1, HNK with cisplatin, 24 hours after cisplatin treatment, listed as HNK
  SIRT3 expression level: increased; also recorded: elevated
[4]; HEI-OC1, cisplatin in the presence of HNK, pilot studies
  DNA damage: diminished
[4]; HEI-OC1, honokiol
  cleavage of poly ADP ribose polymerase (PARP): decrease
  expression of Caspase 3: decrease
[4]; HEI-OC1, increasing concentrations of honokiol
  expression of SIRT3: increase
[4]; HEI-OC1 co-treated with HNK and cisplatin versus cisplatin alone, pilot studies
  expression of early apoptosis mark caspase-3: higher in some cells
[5]
  passage of the blood-brain barrier: capable of passing the blood-brain barrier
[5]; listed as HNK
  passage of the blood-brain barrier: can also cross the blood brain barrier; also recorded: permeable; also recorded: can pass through the blood-brain barrier
Outer hair cells (OHC); Cis 15 + HNK 20 mg/kg, up to the 40 kHz region, only sporadic loss of HCs
  OHC structure: nearly intact OHC structure
Colon cancer cells; honokiol 10 μM or 25 μM, cisplatin 50 μM
  effect with cisplatin on colon cancer cells: synergistic effect
Colon cancer cells; [6]
  protection of colon cancer cells from the toxicity of cisplatin: not observed to protect
Cervical cancer cells; honokiol 25 μM, cisplatin 50 μM (C50H25)
  effect with cisplatin on cervical cancer cells: synergistic effect
Cervical cancer cells; [6]
  protection of cervical cancer cells from the toxicity of cisplatin: not observed to protect
[1]; mice pre-treated with HNK, cisplatin 15 mg/kg
  DPOAE amplitude changes: less pronounced
[2]; HNK up to 25 μM, 50 μM cisplatin, preliminary data
  prostate cancer cell (C4-2B) death from cisplatin treatment: did not prevent
[2]; [6]
  protection of prostate cancer cells from the toxicity of cisplatin: not observed to protect
[3]; cisplatin 15 mg/kg with honokiol
  maximum weight loss: about 15%
[3]; cisplatin 20 mg/kg with honokiol
  animals lost: 20%
[3]; [7]
  survival rate / animal loss: significantly reduced; also recorded: improved significantly
  weight loss: significantly reduced; also recorded: largely improved
HEI-OC1 cells
  cell toxicity: no cell toxicity
HEI-OC1 cells; 10 μM HNK, 50 μM cisplatin, 24 hours, preliminary study
  HEI-OC1 apoptosis induced by cisplatin: completely prevent
HEI-OC1 cells; HNK 10 μM, cisplatin 50 μM
  protection against high dose cisplatin ototoxicity: ~100%
HEI-OC1 cells; honokiol 5 μM or 10 μM, cisplatin 50 μM or 100 μM
  protection of HEI-OC1 cells against cisplatin-induced cell loss: protect
